# Data published in US11246876B2, “Anti-cancer effects of JAK2 inhibitors in combination with thalidomide derivatives and glucocorticoids” (OncoTracker, Inc., priority 2014, dated 2022).
# Key:
# LAGκ-2 tumors = test: LAGκ-2 human multiple myeloma xenograft in SCID mice; type: in vivo; conditions: dosing as for LAGκ-1A (dexamethasone 1.5 mg/kg for LAGκ-2)
# Protocol: (§1) The combination of the JAK2 inhibitor ruxolitinib with lenalidomide and dexamethasone was tested on human multiple myeloma tumors in vivo. The anti-multiple myeloma effects of ruxolitinib were evaluated with mice bearing either LAGκ-1A (bortezomib- and melphalan-sensitive) or LAGκ-2 (bortezomib- and melphalan-resistant) tumors, both of which were originally derived from bone marrow biopsies from multiple myeloma patients. These tumors closely resemble human multiple myeloma and have been passaged through multiple generations of mice with consistent growth and chemoresistance patterns.
# In another experiment, mice received an intramuscular implantation of LAGκ-2 tumor tissue, and then underwent treatment with vehicle control, ruxolitinib, dexamethasone, lenalidomide, ruxolitinib and dexamethasone, ruxolitinib and lenalidomide, dexamethasone and lenalidomide, or ruxolitinib with lenalidomide and dexamethasone, as described above (see FIG. 8B). Similar to the effects on LAGκ-1A tumors, when ruxolitinib, lenalidomide, or dexamethasone was administered individually, LAGκ-2 tumor growth was not inhibited compared to control.
# (§2) Six- to 8-week-old male severe combined immunodeficient (SCID) mice were obtained from the Jackson Laboratory (Bar Harbor, Me., USA) and maintained in a specific pathogen-free area in our animal resources facility. Human myeloma tumors (LAGκ-1A or LAGκ-2) which have been maintained in our laboratory for many years were excised from an anaesthetized tumor containing donor mouse, sectioned into 20-40 mm3 pieces, and surgically implanted into the left superficial gluteal muscle of the anaesthetized naive SCID mice. Recipient mice received weekly injections of anti-asialo GM1 rabbit serum (Wako Bioproducts, Richmond, Va., USA) to further suppress immune activity and allow growth of the human tumor. All animal studies were conducted according to protocols approved by the Institutional Animal Care and Use Committee. Animals were anaesthetized with ketamine, xylazine, and isoflurane prior to surgery and were euthanized when tumors reached 2 cm in diameter. […]
# LAGκ-1A tumors = test: LAGκ-1A human multiple myeloma xenograft in SCID mice; type: in vivo; conditions: ruxolitinib 1.5 mg/kg i.p. twice daily, dexamethasone 1 mg/kg i.p. once daily, lenalidomide 15 mg/kg oral gavage once daily
# Protocol: as §1
# Following intramuscular implantation of LAGκ-1A tumor tissue, mice underwent treatment with vehicle control, ruxolitinib, dexamethasone, lenalidomide, ruxolitinib and dexamethasone, ruxolitinib and lenalidomide, dexamethasone and lenalidomide, or ruxolitinib with lenalidomide and dexamethasone (see FIG. 8A). Ruxolitinib was administered via injection at 1.5 mg/kg i.p., twice daily; dexamethasone was administered at 1 mg/kg i.p., once daily, and lenalidomide was administered via oral gavage at 15 mg/kg, once daily. When ruxolitinib, lenalidomide, or dexamethasone was administered individually, LAGκ-1A tumor growth was not inhibited compared to control.
# as §2, with “Committee.” for “Committee. Animals were anaesthetized with ketamine, xylazine, and isoflurane prior to surgery and were euthanized when tumors reached 2 cm in diameter.”
Structure (SMILES),LAGκ-2 tumor growth compared to control (LAGκ-2 tumors),LAGκ-1A tumor growth compared to control (LAGκ-1A tumors)
C[C@@H]1C[C@H]2[C@@H]3CCC4=CC(=O)C=C[C@]4(C)[C@@]3(F)[C@@H](O)C[C@]2(C)[C@@]1(O)C(=O)CO [dexamethasone],not inhibited,not inhibited
Nc1cccc2c1CN(C1CCC(=O)NC1=O)C2=O (stereo not drawn) [lenalidomide],not inhibited,not inhibited
N#CC[C@H](C1CCCC1)n1cc(-c2ncnc3[nH]ccc23)cn1 [ruxolitinib],not inhibited,not inhibited
